Read-outs that look alike come from different tables or passages of the source.
Tests used:
[1] = Pharmacokinetics of five iridoids in rat plasma after oral administration of PS extract (UHPLC-ESI-MS/MS); type: in vivo, SD (Sprague Dawley) rats
Description: Six adult male SD (Sprague Dawley) rats (220–250 g) were purchased from the Animal Experiment Center of Heilongjiang University of Chinese Medicine. The Animal Ethics Committee of Harbin Medical University approved the experimental protocol, which conformed to the principles for the Care and Use of Laboratory Animals. The experimental animals were fed under the following conditions: room temperature (20–25 °C), relative humidity (40–60%), 12 h of alternating day and night lighting, 12 h of fasting before the experiment, and free access to water. We calculated the dosage of SD rats using the standardized formula for body surface area (BSA). According to the Chinese Pharmacopoeia, the dosage of PS raw medicine for human use is 10 g. The dosage for rats is 0.9 g/kg.
The dried PS powder weighed 200 g and was extracted with eight times the amount of 75% ethanol at reflux three times for 2 h each time. The extracts were combined, filtered, distilled under reduced pressure until the alcoholic taste disappeared, and lyophilized with water. In our previous laboratory experiments, we used HPLC to determine the content of five analytes, namely Picroside-I (15.68 mg/g), Picroside-II (103.64 mg/g), Picroside-III (64.08 mg/g), minecoside (2.02 mg/g), and sweroside (12.28 mg/g). After freeze-drying, we dissolved the solid in a 5% sodium carboxymethyl cellulose solution and prepared a medicinal extract solution with a concentration of 0.3 g/mL.
A dose of 1 g/kg of body weight was administered to rats according to the pharmacopoeia and previous content results for the five analytes. Rat tail vein blood samples were collected in heparinized tubes before and 0.167, 0.333, 0.5, 0.75, 1, 2, 4, 6, 8, and 12 h after administration and centrifuged at 3500 rpm for 10 min. We obtained 100 µL of the upper layer of plasma and stored it at −20 °C for measurement.
The plasma samples were treated according to the method described in Section 3.3. The plasma samples were determined according to the chromatographic conditions described in Section 3.4 and chromatograms were recorded. The measured peak area ratios of the substances being measured and the IS were substituted into the accompanying standard curves on the same day. We also calculated the blood concentrations of Picroside-I (15.68 mg/g), Picroside-II (103.64 mg/g), Picroside-III (64.08 mg/g), minecoside (2.02 mg/g), and sweroside (12.28 mg/g), respectively. We determined the QC samples at the same time, allowing a maximum of two different concentrations of QC samples to exceed the theoretical value of ±15% of the RE% value.
The peak areas of Picroside-I, Picroside-II, Picroside-III, minecoside, sweroside, and IS in each sample were recorded. We calculated and substituted their ratios into the standard curve equation to obtain corresponding concentrations for the five substances being measured in the plasma of SD rats. The blood concentration data of each rat were processed separately to calculate the relevant pharmacokinetic parameters, and the mean and standard deviation of the parameters were further calculated. We calculated and plotted pharmacokinetic parameters including concentration–time curves (AUC0–t, AUC0–∞), average residence time (MRT), maximum plasma concentration (Cmax), time to reach the maximum concentration (Tmax), and half-time (t1/2) using pharmacokinetic software (DAS 2.0) with a non-atrial chamber model for blood concentration–time curves. All parameters were expressed as mean ± SD.

[2] = system: hyaluronidase; conditions: cited from earlier work
[3] = system: CXCR4; set-up: method as in PMID 32016931; conditions: breast cancer cells; cited from earlier work
[4] = Stability of the analytes in rat plasma QC samples under storage and processing conditions; type: in vitro ADME; conditions: n = 6; for Short-Term Stability RE: room temperature 4 h; for Freeze-Thaw RE: three freeze-thaw cycles −20 °C/room temperature; for Long-Term Stability RE: −20 °C two weeks
Description: Stability refers to the chemical stability of the sample being tested in a given medium under certain external conditions. We obtained 100 µL of rat blank plasma and prepared low, medium, and high concentrations of the QC sample standard solutions, Picroside-I, Picroside-II, Picroside-III, minecoside, and sweroside, according to the method described in Section 3.3. As simulated biological samples, the following conditions were investigated: (1) Short-term stability (QC samples were left at room temperature for 4 h, which exceeded the sample preparation time); (2) long-term stability (QC samples were left at −20 °C for two weeks); (3) freeze-thaw stability (three freeze-thaw cycles at −20 °C/room temperature) and post-preparation stability (QC samples were left in a 4 °C auto sampling chamber for 24 h).

[5] = set-up: method as in PMID 27498779; conditions: mice, bile stasis-induced liver injury; cited from earlier work
[6] = system: H9c2; conditions: cardiac cell line H9c2; cited from earlier work
[7] = male, Sprague-Dawley, rat, in vivo, po, 1 g/kg
[8] = rat plasma, oral PS extract 1 g/kg, n = 6, mean ± SD

| Structure (SMILES) | AUC(0-inf) [1, 7] [ng·h/mL] | AUC(0-t) [1, 7] [ng·h/mL] | Cl [1, 7] [mL/min/kg] | Cmax [1, 7] [ng/mL] | MRT last [1, 7] [h] | Tmax [1, 7] [h] | Vd [1, 7] [L/kg] | half-life [1, 7] [h] | Short-Term Stability RE ([4]; high QC) [%] | Freeze-Thaw RE ([4]; high QC) [%] | Long-Term Stability RE ([4]; high QC) [%] | Short-Term Stability RE ([4]; low QC) [%] | Freeze-Thaw RE ([4]; low QC) [%] | Long-Term Stability RE ([4]; low QC) [%] | Short-Term Stability RE ([4]; medium QC) [%] | Freeze-Thaw RE ([4]; medium QC) [%] | Long-Term Stability RE ([4]; medium QC) [%] | other results |
| --- | --- | --- | --- | --- | --- | --- | --- | --- | --- | --- | --- | --- | --- | --- | --- | --- | --- | --- |
| COc1ccc(/C=C/C(=O)O[C@H]2[C@@H]3C=CO[C@@H](O[C@@H]4O[C@H](CO)[C@@H](O)[C@H](O)[C@H]4O)[C@@H]3[C@@]3(CO)O[C@@H]23)cc1O [Minecoside, minecoside] | 93.5 ± 22.6 | 78.9 ± 10.2 | 119.1 ± 39.7 | 21.1 ± 7.8 | 4.1 ± 0.7 | 1 ± 0.2 | 19.26 ± 4.77 | 5 ± 2.3 |  |  |  |  |  |  |  |  |  | Hyaluronidase inhibitory activity [2]: hyaluronidase inhibitory activity; Effect on CXCR4 expression [3]: inhibits the expression of CXCR4 |
| O=C(/C=C/c1ccccc1)OC[C@H]1O[C@@H](O[C@@H]2OC=C[C@H]3[C@H](O)[C@@H]4O[C@]4(CO)[C@@H]23)[C@H](O)[C@@H](O)[C@@H]1O [Picroside-I] | 382 ± 29.4 | 361 ± 25.6 | 607.2 ± 290.6 | 114 ± 16.1 | 3.6 ± 0.2 | 1.1 ± 0.2 | 186.7 ± 17.436 | 2.4 ± 0.3 | 6.58 | −1.94 | 3.59 | 8.93 | 6.43 | 5.60 | 3.83 | −2.74 | −5.69 |  |
| C=C[C@H]1[C@H](O[C@@H]2O[C@H](CO)[C@@H](O)[C@H](O)[C@H]2O)OC=C2C(=O)OCC[C@H]21 [Sweroside, sweroside] |  |  |  |  |  |  |  |  |  |  |  |  |  |  |  |  |  | AUC(0-t) ([1]; male, Sprague-Dawley, in vivo, rat plasma, oral PS extract 1 g/kg, n = 6, mean ± SD, read-out: AUC0–t): 261 ± 65.3 ng·h/mL; AUC(0-inf) ([1]; male, Sprague-Dawley, in vivo, rat plasma, oral PS extract 1 g/kg, n = 6, mean ± SD, read-out: AUC0–∞): 268 ± 70.8 ng·h/mL; Cmax ([1]; male, Sprague-Dawley, in vivo, rat plasma, oral PS extract 1 g/kg, n = 6, mean ± SD, read-out: Cmax): 63.7 ± 17.6 ng/mL; MRT last ([1]; male, Sprague-Dawley, in vivo, rat plasma, oral PS extract 1 g/kg, n = 6, mean ± SD, read-out: MRT0–t): 3.9 ± 0.3 h; Tmax ([1]; male, Sprague-Dawley, in vivo, rat plasma, oral PS extract 1 g/kg, n = 6, mean ± SD, read-out: Tmax): 2.1 ± 0.1 h; half-life ([1]; male, Sprague-Dawley, in vivo, rat plasma, oral PS extract 1 g/kg, n = 6, mean ± SD, read-out: t1/2 (converted)): 1.2 ± 0.3 h; Cl [1, 8]: 2015 ± 615.8 mL/min/kg; Vd [1, 8]: 785.1 ± 130.6 L/kg; Effect on pro-inflammatory responses and bile acid levels [5]: improves pro-inflammatory responses and bile acid levels; Effect on aconitine toxicity to myoblasts [6]: reduce aconitine’s toxicity |
| COc1cc(C(=O)O[C@H]2[C@@H]3C=CO[C@@H](O[C@@H]4O[C@H](CO)[C@@H](O)[C@H](O)[C@H]4O)[C@@H]3[C@@]3(CO)O[C@@H]23)ccc1O [Picroside-II] | 611 ± 246 | 604 ± 239 | 2873.3 ± 999.3 | 336 ± 92.3 | 2.3 ± 0.5 | 1.1 ± 0.1 | 796 ± 503.5 | 2.3 ± 1.5 | 4.47 | −1.47 | −2.19 | −4.99 | 7.08 | 8.69 | 8.53 | −7.21 | 1.37 | AUC(0-t) ([1]; male, Sprague-Dawley, rat, in vivo, po): 604 ± 239 ng·h/mL |
